Data taken from patent US8329717B2, “Pyrimidine derivatives and their use for controlling undesired plant growth” (Bayer Cropscience AG, priority 2008, dated 2012).

Experiments:
PHBPU = assay: Post-emergence herbicidal effect; assay type: in vivo; settings: Dosage 320 g/ha, one-leaf stage, visual scoring after ca. 3 weeks vs untreated controls, 100% = plants have died
Procedure: (§1) 2. Post-Emergence Herbicidal Effect and Crop Plant Compatibility Seeds of monocotyledonous or dicotyledonous weed plants or crop plants are planted in wood-fiber pots in sandy loam, covered with earth and grown in a greenhouse under good growth conditions. 2 to 3 weeks after sowing, the test plants are treated in the one-leaf stage. The compounds according to the invention, formulated in the form of wettable powders (WP) or as emulsion concentrates (EC), are then sprayed onto the green plant parts as aqueous suspension or emulsion at a water application rate of 600 to 800 l/ha (converted) with the addition of 0.2% of wetting agent. The dosage of the compounds according to the invention is given in grams per hectare. After ca. 3 weeks' standing time of the test plants in the greenhouse under optimum growth conditions, the effect of the preparations is scored visually in comparison with untreated controls (herbicidal effect in percent (%): 100% effect=plants have died, 0% effect=as control plants).

Viola tricolor [1] = assay: Post-emergence herbicidal effect; assay type: in vivo; settings: Dosage 320 g/ha, one-leaf stage, visual scoring after ca. 3 weeks vs untreated controls, 100% = plants have died
Procedure: as §1, with “The following abbreviations are used in the tables below: [table] 2.” for “2.”

Abutilon theophrasti = assay: Post-emergence herbicidal effect; assay type: in vivo; settings: Dosage 320 g/ha, one-leaf stage, visual scoring after ca. 3 weeks vs untreated controls, 100% = plants have died
Procedure: as §1, with “The following abbreviations are used in the tables below: [table] 2.” for “2.”

Stellaria media [2] = assay: Post-emergence herbicidal effect; assay type: in vivo; settings: Dosage 320 g/ha, one-leaf stage, visual scoring after ca. 3 weeks vs untreated controls, 100% = plants have died
Procedure: as §1, with “The following abbreviations are used in the tables below: [table] 2.” for “2.”

Polygonum convolvulus [3] = assay: Post-emergence herbicidal effect; assay type: in vivo; settings: Dosage 320 g/ha, one-leaf stage, visual scoring after ca. 3 weeks vs untreated controls, 100% = plants have died
Procedure: as §1, with “The following abbreviations are used in the tables below: [table] 2.” for “2.”

Amaranthus retroflexus [4] = assay: Post-emergence herbicidal effect; assay type: in vivo; settings: Dosage 320 g/ha, one-leaf stage, visual scoring after ca. 3 weeks vs untreated controls, 100% = plants have died
Procedure: as §1, with “The following abbreviations are used in the tables below: [table] 2.” for “2.”

Lolium multiflorum [5] = assay: Post-emergence herbicidal effect; assay type: in vivo; settings: Dosage 320 g/ha, one-leaf stage, visual scoring after ca. 3 weeks vs untreated controls, 100% = plants have died
Procedure: as §1, with “The following abbreviations are used in the tables below: [table] 2.” for “2.”

Veronica persica [6] = assay: Post-emergence herbicidal effect; assay type: in vivo; settings: Dosage 320 g/ha, one-leaf stage, visual scoring after ca. 3 weeks vs untreated controls, 100% = plants have died
Procedure: as §1, with “The following abbreviations are used in the tables below: [table] 2.” for “2.”

Echinochloa crus-galli [7] = assay: Post-emergence herbicidal effect; assay type: in vivo; settings: Dosage 320 g/ha, one-leaf stage, visual scoring after ca. 3 weeks vs untreated controls, 100% = plants have died
Procedure: as §1, with “The following abbreviations are used in the tables below: [table] 2.” for “2.”

Setaria viridis [8] = assay: Post-emergence herbicidal effect; assay type: in vivo; settings: Dosage 320 g/ha, one-leaf stage, visual scoring after ca. 3 weeks vs untreated controls, 100% = plants have died
Procedure: as §1, with “The following abbreviations are used in the tables below: [table] 2.” for “2.”

[9] = logp (HCOOH), chemicophysical data
Matricaria inodora = assay: Pre-emergence herbicidal effect; assay type: in vivo; settings: Dosage 320 g/ha, visual scoring after 3 weeks vs untreated controls, 100% = plants have died
Source text: (§2) 1. Pre-Emergence Herbicidal Effect and Crop Plant Compatibility Seeds of monocotyledonous or dicotyledonous weed plants or crop plants are planted in wood-fiber pots in sandy loam and covered with earth. The compounds according to the invention, formulated in the form of wettable powders (WP) or as emulsion concentrates (EC), are then applied as aqueous suspension or emulsion at a water application rate of 600 to 800 l/ha (converted) with the addition of 0.2% of wetting agent to the surface of the covering earth. The dosage of the compounds according to the invention is given in grams per hectare. Following the treatment, the pots are placed in a greenhouse and kept under good growth conditions for the test plants. The visual scoring of the damage on the test plants is carried out after an experiment time of 3 weeks in comparison with untreated controls (herbicidal effect in percent (%): 100% effect=plants have died, 0% effect=as control plants). The following abbreviations are used in the tables below: [table]

Stellaria media [10] = assay: Pre-emergence herbicidal effect; assay type: in vivo; settings: Dosage 320 g/ha, visual scoring after 3 weeks vs untreated controls, 100% = plants have died
Source text: as §2

Amaranthus retroflexus [11] = assay: Pre-emergence herbicidal effect; assay type: in vivo; settings: Dosage 320 g/ha, visual scoring after 3 weeks vs untreated controls, 100% = plants have died
Source text: as §2

Lolium multiflorum [12] = assay: Pre-emergence herbicidal effect; assay type: in vivo; settings: Dosage 320 g/ha, visual scoring after 3 weeks vs untreated controls, 100% = plants have died
Source text: as §2

Veronica persica [13] = assay: Pre-emergence herbicidal effect; assay type: in vivo; settings: Dosage 320 g/ha, visual scoring after 3 weeks vs untreated controls, 100% = plants have died
Source text: as §2

Echinochloa crus-galli [14] = assay: Pre-emergence herbicidal effect; assay type: in vivo; settings: Dosage 320 g/ha, visual scoring after 3 weeks vs untreated controls, 100% = plants have died
Source text: as §2

Viola tricolor [15] = assay: Pre-emergence herbicidal effect; assay type: in vivo; settings: Dosage 320 g/ha, visual scoring after 3 weeks vs untreated controls, 100% = plants have died
Source text: as §2

Alopecurus myosuroides [16] = assay: Pre-emergence herbicidal effect; assay type: in vivo; settings: Dosage 320 g/ha, visual scoring after 3 weeks vs untreated controls, 100% = plants have died
Source text: as §2

Setaria viridis [17] = assay: Pre-emergence herbicidal effect; assay type: in vivo; settings: Dosage 320 g/ha, visual scoring after 3 weeks vs untreated controls, 100% = plants have died
Source text: as §2

Alopecurus myosuroides [18] = assay: Post-emergence herbicidal effect; assay type: in vivo; settings: Dosage 320 g/ha, one-leaf stage, visual scoring after ca. 3 weeks vs untreated controls, 100% = plants have died
Procedure: as §1, with “The following abbreviations are used in the tables below: [table] 2.” for “2.”

Avena fatua = assay: Pre-emergence herbicidal effect; assay type: in vivo; settings: Dosage 320 g/ha, visual scoring after 3 weeks vs untreated controls, 100% = plants have died
Source text: as §2

Polygonum convolvulus [19] = assay: Pre-emergence herbicidal effect; assay type: in vivo; settings: Dosage 320 g/ha, visual scoring after 3 weeks vs untreated controls, 100% = plants have died
Source text: as §2

Structure (SMILES) | Post-emergence herbicidal effect PHBPU (PHBPU) [%] | Post-emergence herbicidal effect VIOTR (Viola tricolor [1]) [%] | Post-emergence herbicidal effect ABUTH (Abutilon theophrasti) [%] | Post-emergence herbicidal effect STEME (Stellaria media [2]) [%] | Post-emergence herbicidal effect POLCO (Polygonum convolvulus [3]) [%] | Post-emergence herbicidal effect AMARE (Amaranthus retroflexus [4]) [%] | Post-emergence herbicidal effect LOLMU (Lolium multiflorum [5]) [%] | Post-emergence herbicidal effect VERPE (Veronica persica [6]) [%] | Post-emergence herbicidal effect ECHCG (Echinochloa crus-galli [7]) [%] | logp (HCOOH) [9] | Pre-emergence herbicidal effect MATIN (Matricaria inodora) [%] | Pre-emergence herbicidal effect STEME (Stellaria media [10]) [%] | Pre-emergence herbicidal effect AMARE (Amaranthus retroflexus [11]) [%] | Pre-emergence herbicidal effect LOLMU (Lolium multiflorum [12]) [%] | Pre-emergence herbicidal effect VERPE (Veronica persica [13]) [%] | Pre-emergence herbicidal effect ECHCG (Echinochloa crus-galli [14]) [%] | Pre-emergence herbicidal effect VIOTR (Viola tricolor [15]) [%] | Pre-emergence herbicidal effect ALOMY (Alopecurus myosuroides [16]) [%] | Pre-emergence herbicidal effect SETVI (Setaria viridis [17]) [%] | further results
Cc1nc(NC2c3ccccc3CC2C)nc(N)c1C#N (racemic) [Example 1.23] | 80 | 90 | 80 | 90 | 100 | 80 | 90 | 90 | 100 | solid; logp (HCOOH): 1.99; 1H-NMR (CDCl3, 400 MHZ, δ in ppm): 1.25 (d, 3H, CH3); | – | – | – | – | – | – | – | – | – | Post-emergence herbicidal effect SETVI (Setaria viridis [8]): 90%
Cc1nc(NC2CCc3ccc(C(C)C)cc32)nc(N)c1C#N (racemic) [Example 1.28] | – | 90 | 90 | – | 90 | 90 | – | 90 | 90 | wax-like; logp (HCOOH): 2.68; 1H-NMR (CDCl3, 400 MHZ, δ in ppm): 1.20 (d, 6H, CH3); | – | – | – | – | – | – | – | – | – | –
Nc1nc(N[C@@H]2CCCc3ccccc32)ncc1I [Example 1.37] | 80 | 80 | 85 | 95 | – | 100 | – | 90 | 80 | wax-like; logp (HCOOH): 1.32; 1H-NMR (CDCl3, 400 MHZ, δ in ppm): 1.85 (m, 2H, CH2); | 90 | 100 | 100 | 100 | 100 | 100 | – | – | – | –
CCc1nc(N[C@@H]2CCc3ccccc32)nc(N)c1C#N [Example 1.62, 4-Amino-2-[(1R)-2,3-dihydro-1H-inden-1-ylamino]-6-ethylpyrimidine-5-carbonitrile] | 80 | – | – | 80 | 80 | – | 90 | 80 | 90 | – | 90 | 100 | – | 80 | 100 | 100 | 100 | 80 | 90 | Post-emergence herbicidal effect ALOMY (Alopecurus myosuroides [18]): 80%; chromatographic logP ([9]; HCOOH (formic acid)): 2.18
Cc1ccc2c(c1)[C@H](Nc1nc(N)cc(Cl)n1)[C@@H](C)C2 [Example 1.75] | 90 | – | – | 87 | 80 | 90 | – | 85 | 85 | – | 100 | 100 | 100 | 95 | 100 | 100 | 100 | 100 | 95 | Pre-emergence herbicidal effect AVEFA (Avena fatua): 90%; Pre-emergence herbicidal effect POLCO (Polygonum convolvulus [19]): 100%
Nc1nc(N[C@@H]2CCCc3ccccc32)ncc1Cl [Example 1.106] | – | – | – | 80 | – | 80 | 90 | 80 | 90 | – | 90 | 100 | 100 | 100 | 100 | 90 | – | 100 | 100 | Post-emergence herbicidal effect ALOMY (Alopecurus myosuroides [18]): 80%; Post-emergence herbicidal effect SETVI (Setaria viridis [8]): 80%
CC[C@H]1Cc2ccccc2[C@@H]1Nc1nc(C)c([N+](=O)[O-])c(N)n1 [Example 1.126] | 80 | – | – | 90 | – | – | – | 85 | 80 | – | 100 | 100 | 100 | – | 100 | 95 | 100 | – | 85 | Pre-emergence herbicidal effect POLCO (Polygonum convolvulus [19]): 90%
